In data set [1] the target is hERG potassium channel (Homo sapiens, UniProt Q12809). Briefly: hERG current, whole-cell patch clamp on HEK-hERG stable cell line. It is filed as cell-based. An excerpt:
Rapidly activated human delayed rectifier outward potassium current (IKr) is mainly mediated by hERG ion channels, and participates in human cardiomyocyte repolarization. Pharmaceutical blockade of this current is the main cause of prolonged QT syndrome, even acute arrhythmia and sudden death clinically.
In this experiment, a stable cell line HEK-hERG (from the Academy of Military Medical Sciences) was selected, and the whole-cell patch clamp technique was used to record the hERG current. Cell suspension was collected and added to a 35 mm culture dish, which was placed on an inverted microscope carrier. After cell attachment, perfusion was performed with an extracellular fluid at a flow rate of 1-2 mL/min. A glass microelectrode was drawn in two steps by a micropipette puller, and after filling with electrode inner fluid, the water resistance of the glass microelectrode was 2-5 MΩ. After the whole cell recording mode was established, the clamping potential was maintained to −80 mV. A depolarization voltage was exerted to +60 mV for 850 ms, followed by repolarization to −50 mV for 1275 ms to induce an hERG tail current. After current stabilization, continuous extracellular perfusion administration from a low concentration to a high concentration was adopted. Starting from the low concentration, continuous perfusion was performed until the efficacy was stable, followed by perfusion of the next concentration. When the inhibitory rate of a compound or positive control to the hERG current was less than 50%, the CV of each of five consecutive current values was less than 10%. When the inhibitory rate of a compound or positive control to the hERG current was more than 50% but less than 70%, the CV of each of five consecutive current values was less than 20%. If a current amplitude was reduced by less than 200 pA, or if the inhibitory rate was more than 70%, the CV of each of five consecutive current values was less than 30%.
A certain amount of a test sample was weighed and dissolved into DMSO to prepare a 30 mM stock solution. Prior to the experiment, the above stock solution was diluted by DMSO 10 times and 3 times step by step, and then the solution was diluted by extracellular fluid to a required concentration. The solution at working concentration should be checked for precipitation before use. If precipitation existed, the stock solution would be diluted to increase the final concentration of DMSO in the extracellular fluid. However, the final concentration of DMSO in the extracellular fluid would not exceed 0.5%. Continuous perfusion from low to high concentrations was done during the experiment. The half inhibitory concentration (IC50) of the test sample was obtained by the best fitting of Logistic equation.
When data were processed, stimulus release and signal acquisition were carried out by the software patchmaster; and a patch clamp amplifier amplified the signal and filtered it to 10 KHz. Fitmaster, excel, spass 21.0, and the like were used for further data analysis and curve fitting. The data were shown as mean values±standard deviation. In data processing, when the blocking effect on hERG was determined, the peak value of a tail current and its baseline were corrected. The inhibitory rates of the tail current were used to show the effects of various compounds at different concentrations. The inhibitory rate=100×(the peak value of the tail current before administration−the peak value of the tail current after administration)/the peak value of the tail current before administration %. IC50 values were fitted by the Hill equation:
[formula] wherein, y: I/Icontrol; max: 100%; min: 0%; [drug]: concentration of the test sample; nH: Hill slope; IC50: maximum half inhibition concentration of the test substance.
To induce a peak current of hERG tail current, the clamping potential was maintained at −80 mV, depolarized to 60 mV for 0.85 s, and then repolarized to −50 mV for 1.275 s. […]
A general note: Block of hERG is tested as a sign of cardiac risk.

Data set [2] relates to Transgenic mice containing APP/PS1. Briefly: Water maze test of spatial memory in mice. It is filed as in vivo. Here is the method: Transgenic mice containing APP/PS1 were purchased from the Jackson Laboratory of the USA. The transgenic mice were crossbred with B6/C3 background mice. Their offspring were self-bred, genotyped, and each fed in a separate cage for about 8 months. One week before the test, a prescribed dose of medicament was administered to the mice by gavage each day, and then the spatial memory of the mice was measured by water maze test. A water tank with a diameter of 1.5 meters was filled with water at a constant temperature of 25 degrees, and skim milk was added to render the water surface opaque. A transparent platform was placed in a specific quadrant of the water tank. Distant hints were provided as spatial reference. The mice were put into the water and allowed to swim until they found the platform under the surface of water. The whole process was tracked by software, and the time from launching to finding the platform, called a latent period, was recorded thereby. If a mouse could not find the platform within 60 seconds, it was manually guided to the platform and its latent period was recorded as 60 seconds. Four rounds of the above tests were carried out on each mouse every day, with a one-hour interval between every two rounds of tests for the mice to rest. The latent period of each mouse on a day was the average of the four rounds of tests on the same day.

Data set [3] relates to Drosophilae containing and expressing human Abeta42 gene. Description: Pavlov's olfactory-related instantaneous memory test in Drosophila. It is filed as in vivo. The conditions noted are these: test medicament 100 μM, 50 μL per 100 drosophilae, 7 consecutive days; FIG. 1 and FIG. 2. An excerpt: Drosophila has a classical learning and memory paradigm, known as Pavlov's olfactory-related instantaneous memory. During the training program, a group of about 100 drosophilae were exposed sequentially to two odors, i.e., 3-octanol and 4-methylcyclohexanol, each odor for 60 seconds, and to fresh air for 45 seconds therebetween. During exposure to the first odor, the drosophilae were electrocuted on their feet (1.5-second pulses at 3.5-second intervals, 60V), while no electrocution was exerted during exposure to the second odor. In order to detect “instantaneous memory” (also known as “learning”), drosophilae were transferred to the selection area in the T maze immediately after training and forced to choose between the two odors. The drosophilae in each T-maze arm were then captured, anesthetized, and counted. The behavior index was calculated from the distribution of drosophilae in the T maze. […] In each experiment, the age of the control group was matched with that of the experimental group.
Pharmacodynamic evaluation of the candidate compounds: Drosophilae containing and expressing human Abeta42 gene were selected as a diseased control, and drosophilae containing but not expressing human Abeta42 gene were selected as a healthy control. The day after emergence of the drosophilae, male drosophilae were selected and fed. Starting from the third day, drosophilae were fed with a test medicament (100 μM, 50 μL per 100 drosophilae) for 7 consecutive days, 4 hours each day. The above memory test was performed on the drosophilae on the tenth day.

Setting [4] is: human, Inhibitory effect, Mean value ± standard deviation.
Setting [5] is: human, Inhibitory effect, individual cells 1-4.

Sequence of hERG potassium channel (Q12809 whole entry): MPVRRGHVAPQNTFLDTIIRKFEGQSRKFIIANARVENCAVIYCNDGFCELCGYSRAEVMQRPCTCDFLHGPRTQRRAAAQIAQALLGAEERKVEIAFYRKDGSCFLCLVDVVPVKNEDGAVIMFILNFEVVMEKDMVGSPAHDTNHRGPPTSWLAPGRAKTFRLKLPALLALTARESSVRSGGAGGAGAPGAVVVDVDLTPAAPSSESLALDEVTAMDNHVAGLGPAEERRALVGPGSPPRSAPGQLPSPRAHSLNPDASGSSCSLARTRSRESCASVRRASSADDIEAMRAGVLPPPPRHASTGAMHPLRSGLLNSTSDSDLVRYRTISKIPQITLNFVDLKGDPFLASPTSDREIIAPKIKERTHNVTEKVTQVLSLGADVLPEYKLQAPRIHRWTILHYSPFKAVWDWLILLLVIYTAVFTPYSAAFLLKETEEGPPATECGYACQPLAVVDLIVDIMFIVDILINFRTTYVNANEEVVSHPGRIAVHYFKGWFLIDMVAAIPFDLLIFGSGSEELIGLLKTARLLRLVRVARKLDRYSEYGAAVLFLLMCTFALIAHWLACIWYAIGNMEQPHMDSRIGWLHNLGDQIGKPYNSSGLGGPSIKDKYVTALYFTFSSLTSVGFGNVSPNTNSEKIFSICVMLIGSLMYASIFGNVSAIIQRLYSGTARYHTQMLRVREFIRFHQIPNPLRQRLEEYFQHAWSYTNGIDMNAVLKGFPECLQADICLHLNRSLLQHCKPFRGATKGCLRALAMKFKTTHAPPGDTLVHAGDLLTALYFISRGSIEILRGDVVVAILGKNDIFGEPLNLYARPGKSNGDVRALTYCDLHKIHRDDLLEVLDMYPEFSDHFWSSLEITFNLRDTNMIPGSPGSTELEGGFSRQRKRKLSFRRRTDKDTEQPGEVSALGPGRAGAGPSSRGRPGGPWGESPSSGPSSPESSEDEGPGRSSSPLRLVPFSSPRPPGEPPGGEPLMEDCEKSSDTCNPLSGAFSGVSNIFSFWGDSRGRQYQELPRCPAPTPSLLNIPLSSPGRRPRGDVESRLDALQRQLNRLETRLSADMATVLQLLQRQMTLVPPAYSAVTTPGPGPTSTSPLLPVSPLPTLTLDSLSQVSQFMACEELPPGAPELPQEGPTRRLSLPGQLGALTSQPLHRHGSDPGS

One may read the Hill coefficient as the slope factor of the fitted curve. Usually IC50 stands for the midpoint of a concentration-inhibition curve. Lower therefore signals greater potency. By inhibition is commonly meant the change of the read-out against control, counted positive when it falls. The low end stands for a response near the control, the high end for a response far below the control. Consider `O=C1C=C(OCc2ccc(F)cc2)[C@H](Cc2ccccc2)N1` [Compound 50561], for which, in data set [1] (Hill equation fit, N=4), the Hill coefficient amounted to 1.01. The IC50 in data set [1] (human) is 26.7 µM. Besides, in data set [1] (setting [4]), the inhibition at 300 nM was determined as 0.84 ± 3.93%, the inhibition at 1 µM was 3.43 ± 4.42%, the inhibition at 3 µM turned out to be 11.3 ± 4.09% and the inhibition at 10 µM was 25.7 ± 1.31%. This compound also showed an inhibition at 30 µM in data set [1] (setting [4]) of 53.6 ± 3.6%. Moreover, in data set [1] (setting [5]), the inhibition at 10 µM is 24.1% and the inhibition at 30 µM stood at 59.6%. Also, in data set [2] (0.1 mg/kg by gavage, FIG. 5), the “ability to rescue the spatial memory of mice” value (“ability … of mice” for short) is on record as “no ability to rescue the spatial memory of mice”. In data set [2] (1 mg/kg by gavage, FIG. 5), the “ability … of mice” value is recorded as “no ability to rescue the spatial memory of mice”. The “ability … of mice” value in data set [2] (10 mg/kg by gavage, FIG. 4) was “good ability to rescue the spatial memory of mice”. For the same compound, in data set [3], the “ability to improve the learning and memory of drosophilae” value was “best ability to improve the learning and memory of drosophilae”.

The values are drawn from patent US11130733B2, “4-OXO-alkylated tetramic acid compound, preparation method and use thereof” (BEIJING JOEKAI BIOTECH. LLC, priority 2017, dated 2021).
